Test results reported in PubChem BioAssay (NCI).
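A five-concentration, 48-hour dose response in 96-well plates underlies each endpoint, interpolated linearly between surrounding concentrations. At the TGI there is no net growth.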

Tests used:
Assay in all cases: NCI anticancer screen, dose series, 48 h
DU-145 prostate = tested on: DU-145 prostate
EKVX NSCLC = tested on: EKVX NSCLC
HCC-2998 colon = tested on: HCC-2998 colon
HCT-15 colon = tested on: HCT-15 colon
KM12 colon = tested on: KM12 colon
MCF7 breast = tested on: MCF7 breast
MDA-MB-231 breast = tested on: MDA-MB-231 breast
NCI-H23 lung = tested on: NCI-H23 lung
NCI-H460 lung = tested on: NCI-H460 lung
OVCAR-3 ovarian = tested on: OVCAR-3 ovarian
OVCAR-8 ovarian = tested on: OVCAR-8 ovarian
PC-3 prostate = tested on: PC-3 prostate
SK-MEL-28 melanoma = tested on: SK-MEL-28 melanoma
SK-MEL-5 melanoma = tested on: SK-MEL-5 melanoma
UACC-257 melanoma = tested on: UACC-257 melanoma
UO-31 renal = tested on: UO-31 renal
MALME-3M melanoma = tested on: MALME-3M melanoma
MDA-N = tested on: MDA-N
RPMI-8226 leukemia = tested on: RPMI-8226 leukemia
SR leukemia = tested on: SR leukemia

Structure (SMILES) | TGI (DU-145 prostate) [µM] | TGI (EKVX NSCLC) [µM] | TGI (HCC-2998 colon) [µM] | TGI (HCT-15 colon) [µM] | TGI (KM12 colon) [µM] | TGI (MCF7 breast) [µM] | TGI (MDA-MB-231 breast) [µM] | TGI (NCI-H23 lung) [µM] | TGI (NCI-H460 lung) [µM] | TGI (OVCAR-3 ovarian) [µM] | TGI (OVCAR-8 ovarian) [µM] | TGI (PC-3 prostate) [µM] | TGI (SK-MEL-28 melanoma) [µM] | TGI (SK-MEL-5 melanoma) [µM] | TGI (UACC-257 melanoma) [µM] | TGI (UO-31 renal) [µM] | TGI (MALME-3M melanoma) [µM] | TGI (MDA-N) [µM] | TGI (RPMI-8226 leukemia) [µM] | TGI (SR leukemia) [µM]
COc1ccccc1/C=C1\NC(=S)N(/C=C2\C(=O)Oc3ccccc3C2=O)C1=O | > 100 | > 100 | > 100 | > 100 | > 100 | > 100 | > 100 | > 100 | > 100 | > 100 | > 100 | > 100 | > 100 | 78.7 | > 100 | 82.9 |  |  |  | 
COc1ccc(C2CC3(c4ccccc4)ON=C(c4ccccc4)N3c3ccccc3S2)cc1 (configuration not stated) | > 100 | > 100 | > 100 | > 100 | > 100 | > 100 | > 100 | > 100 | > 100 | > 100 | > 100 | > 100 | > 100 | > 100 | > 100 | > 100 | > 100 | > 100 | > 100 | 
COC(=O)C(C/C=C(\C)c1ccc(Cl)cc1)C(C)=O (configuration not stated) |  | > 100 | > 100 | > 100 | > 100 | > 100 |  | > 100 | > 100 | > 100 | > 100 |  | > 100 | 51.7 | > 71.3 | 85.4 | > 100 |  | > 69 | 
COc1cc(C2C(Cl)C(=O)N2NC(=O)c2ccc(N)cc2)cc(Br)c1O (configuration not stated) |  | 31 | 24.3 | 28.8 | 30.7 |  |  | 35.1 | 31.4 | 20.8 | > 100 |  | 31.6 | 31.7 | 35.9 | 35.6 | 27.5 |  | 51.5 | 
Ic1cc2c(cc1C1SCCCS1)OCO2 |  | > 100 | > 100 | > 100 | > 100 |  |  | > 100 | > 100 | > 100 | > 100 |  | > 100 | > 100 | > 100 | > 100 | > 100 |  | > 100 | > 100
CC(=O)C1=C(C)N(c2ccc(C)cc2)C2(O)C3=C(C(=O)c4ccccc4C3=O)C(O)=CC12Cl (configuration not stated) | > 100 | > 100 | 31.6 | > 100 | 33.8 | > 100 | > 100 | 34 | > 100 | 45 | 53.4 | > 100 | 79.4 | 22.2 | 55.6 | 34.6 | 36.5 |  | > 100 | > 100
CC(C)(C)C1=CC(=C2C(=O)C(=O)c3ccccc3C2=O)C=C(C(C)(C)C)C1=O |  | > 100 | > 100 | > 100 | > 100 |  |  | > 100 | > 100 | > 100 | > 100 |  | > 100 | > 100 | 80.2 | > 100 | 58.7 |  | 86.9 | 
CC(=O)OC1COC(N2C(=O)C(=O)c3cc(Br)ccc32)C(OC(C)=O)C1OC(C)=O (configuration not stated) |  | > 100 | > 100 | > 100 | > 100 |  |  | > 100 | > 100 | > 100 | > 100 |  | > 100 | > 100 | > 100 | > 100 | > 100 |  | > 100 | > 100
Cc1cc(S(=O)(=O)/N=C(/[N-]S(=O)(=O)c2ccc(Cl)cc2)[n+]2ccc(N(C)C)cc2)c(SCC(=O)O)cc1Cl | > 100 | > 100 |  | > 100 | > 100 | > 100 | > 100 | > 100 | > 100 | > 100 | > 100 | > 100 |  |  | > 100 | > 100 | > 100 |  | > 100 | > 100
COc1ccc(C2C3CCc4ccccc4C3=NN2S(=O)(=O)c2ccc(/C=C/C(=O)O)cc2)cc1 (configuration not stated) | > 100 | > 100 |  | 0.717 | 43.4 | 6.55 | > 100 | 1.87 | 96.5 | 86.3 | 92.5 | > 100 |  | 18.6 |  | 38 | 23.1 |  | 16 | 6.9
Cc1c2ccncc2c(C)c2c1[nH]c1ccc(OCC(F)(F)F)cc12 |  | 3.09 |  | 2.56 | 2.79 |  |  | 3.14 | 2.46 | 3.29 | 2.59 |  | 3.15 | 3.35 | 3.42 | 3.16 | 3.23 |  | 5.32 | 4.2
CCCCCC/C=C1\CCC(CN2CCOCC2)C1=O (configuration not stated) |  | 19.1 | 35.3 | 25.9 | 24.7 |  |  | 31.7 | > 66 | 32.7 | 32.7 |  | 30.7 | 38.4 | 29.3 | 27.5 | 30.6 |  | > 100 | 13.6
C=C[C@]1(C)CCC2=C(CCC3C2(C)CCC[C@@]3(C)COC(C)=O)C1 (some centres not stated) |  | 36.8 | 31.8 | 30.8 | 34.7 |  |  | 43.3 | 32.2 | 32.1 | 34.6 |  | 60.4 | 31 | 53 | 33.4 | 62.4 |  | 35.6 | 35.8
CSC12c3cc(C)n(-c4ccccc4)c3CC(C)(C)CN1C(=O)C2Oc1ccccc1 (configuration not stated) | > 100 | > 100 | > 100 | > 100 | > 100 | > 100 | > 100 | > 100 | > 100 | > 100 | > 100 | > 100 | > 100 | > 100 | > 100 | > 100 |  |  | > 100 | > 100
O=C(OCc1ccccc1)N(CCCCN(CCCNCc1ccccc1)C(=O)OCc1ccccc1)CCCNCc1ccccc1 | 2.55 | 2.94 | 0.933 | 1.17 | 1.6 | > 100 | 2.56 | 3.4 | 0.372 |  | 2.79 | 2.61 | 3.08 | > 100 | 1.92 | 2.75 | 3.29 | 0.983 | 0.605 | 
Cc1cccc(-c2cc(=O)c3c(C)cc(C)nc3[nH]2)c1 | > 100 | > 100 | > 48.1 | > 56 | 21.9 | > 100 | 31.8 | 40.4 | 16.6 | 4.6 | > 100 | > 100 | > 100 | 15.8 | > 100 | > 100 | > 100 |  | > 52.1 | 9.3
CN1CCC2(CC1)C(=NC1CCCCC1)NC(=S)N2c1ccccc1 | > 100 | > 100 | > 100 | > 100 | > 100 | > 100 | > 100 | > 100 | > 100 |  | > 100 |  | > 100 | > 100 | > 100 | > 100 | > 100 |  | > 100 | > 100
COC(=O)C1=C(C)C=C(N2CCOCC2)C(C(=O)OC)C1c1ccccc1 (configuration not stated) | > 10 | > 10 | > 10 | > 10 | > 10 | > 10 | > 10 | > 10 | > 10 | > 10 | > 10 | > 10 | > 10 | > 10 | > 10 | > 10 | > 10 | > 10 | > 10 | 
O=C(O)CC(Sc1ccccc1)c1ccccc1 (configuration not stated) | > 100 | > 100 |  | > 100 | > 100 | > 100 | > 100 | > 100 |  | > 100 | > 100 | > 100 | > 100 | > 100 |  | > 100 | > 100 | > 100 | > 100 | 
Nc1cc(=O)n(-c2ccccc2)c(=S)n1-c1ccccc1 |  | > 100 | > 100 | > 100 | > 100 |  |  |  | > 100 | > 100 | > 100 |  |  | > 100 | > 100 | > 100 | > 100 |  | > 100 | 
CCN(CC)Cc1c(/C=C\c2cc(OC)c(OC)c(OC)c2)ccc(OC)c1O | 39.7 | > 93.5 | 20.4 | 34.8 | 27.1 | 99.4 | > 100 | 14.3 | > 100 | 6.49 | 63.2 | > 41.5 | > 100 | > 83.7 | > 100 | > 94.1 | > 100 | 1.59 | > 100 | 
O=C(NCCNCCCNC(=O)c1cc(-c2ccccc2)nc2ccccc12)c1cccc(OCc2ccccc2)c1OCc1ccccc1 | 3.26 | 3.1 | 2.59 | 3.25 | 3.37 | 3.1 | 3.21 | 3.35 | 3.8 | 3.36 | 3.15 | 3.04 | 3.25 | 3.12 | 3.28 | 3.03 | 3.58 | 3.05 | 5.05 | 
Fc1ccc(-c2sc(-c3cccs3)cc2Cc2cccs2)cc1 | > 100 | > 100 | > 100 | > 100 | > 100 | > 100 | > 100 | > 100 | > 100 | > 100 | > 100 |  | > 100 | > 100 | > 100 | > 100 | > 100 |  |  | 
O=Cc1ccc(CCl)cc1 |  | > 100 |  | 31.9 | 60.3 |  |  |  | 37.1 | 34.9 | 35.2 |  | 32.9 | 30.2 | 36.5 | 34.8 |  |  |  | > 100
CC(=O)NC(Cc1ccsc1)C(=O)O (configuration not stated) |  | > 100 | > 100 | > 100 | > 100 | > 100 |  | > 100 | > 100 | > 100 | > 100 |  | > 100 | > 100 | > 100 | > 100 | > 100 |  | > 100 | 
O=C(Nc1cccc2c1[nH]c1c(-c3ccccc3)nccc12)c1ccccc1[N+](=O)[O-] |  | > 100 | > 100 | 41.2 | > 100 |  |  | > 100 | 78.1 |  | > 100 |  | > 100 |  | > 100 |  | > 100 |  | > 100 | > 100
COP(=O)(OC)C(O)CC(C)C (configuration not stated) | > 100 | > 100 | > 100 |  | > 100 | > 100 | > 100 |  | > 100 | > 100 |  | > 100 | > 100 | > 100 | > 100 | > 100 |  | > 100 | > 100 | 
Brc1ccc2c(c1)-c1nc3nc4c(cc3cc1CC2)CCc1ccc(Br)cc1-4 |  | > 100 | > 100 | > 100 | > 100 | > 100 | > 100 | > 100 | > 100 | > 100 | > 100 | > 100 | > 100 | > 100 | > 100 | > 100 | > 100 | > 100 | > 100 | 
